Assay [1] has as its system NCI-H358 human non-small cell lung cancer. Briefly: NCI-H358 CCK-8 proliferation assay. The note with it: NCI-H358 cells, 72 hr. The format is cell-based. An outline of the steps:
(§1)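 Three KRAS(G12C) lines are used, MIA PaCa-2 at two mutant copies and the NSCLC lines NCI-H358 and NCI-H23 at one. Each compound is titrated 3-fold from 20 μM to 1.02 nM, and proliferation is scored by CCK-8.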
On the technique in general: Tetrazolium assays rely on reduction of a dye to a coloured formazan, in cell work by metabolically active cells.

Assay [2] has as its target T1, KRAS(G12C) (Homo sapiens, UniProt P01116, G12C). The assay is described as follows: KRAS(G12C)/SOS1 homogeneous time-resolved fluorescence (HTRF) assay. Set-up: purchased Cisbio 63ADK000CB16PEG. The note with it: absence of GTP, 4° C. for 3 hr, read-out: KRAS (G12C) binding. An outline of the steps: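 HTRF kit measuring compound-induced block of KRAS(G12C)-SOS1 interaction without GTP. Compounds tested as 3-fold serial dilutions down to 1.02 nM, incubated with reaction components 3 h at 4 °C in sealed plates before fluorescence read.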

The target in another assay is T2, HSP90a protein (Homo sapiens, UniProt P07900).
T2 construct: purchased BPS Bioscience 50298
The assay is described as follows: HSP90α-binding fluorescent polarization (FP) assay, BODIPY-labeled RNK04010 probe. The note with it: FP competition with RNK04010 (BODIPY-labeled), 5 nM, 300 min at 25° C. An outline of the steps:
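Polarization signal was read after equilibration at 25° C, for 120 min with FITC-geldanamycin or 300 min with the BODIPY-tagged RNK04010 probe, each at 5 nM final. Compounds spanned 20 μM down to 5.2 nM in 2.5-fold dilutions against the HSP90a N-terminal domain.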

The subject of assay [3] is MIA PaCa-2 human pancreatic carcinoma. The assay is described as follows: MIA PaCa-2 CCK-8 proliferation assay. The format is cell-based. The note with it: MIA PaCa-2 cells. The essentials:
as §1

The target in assay [4] is T1, KRAS(G12C). The assay is described as follows: KRAS(G12C) Western blot protein degradation assay in LU65A cells. The note with it: 6 hr. Also on record: LU65A human lung cancer cell line, which expresses KRAS(G12C); host or cells: LU65A. The format is cell-based. As for the experimental part:
The following cancer cell lines were employed: BT-474 human breast carcinoma (ATCC, #HTB-20); MIA PaCa-2 human pancreatic carcinoma [2 copies KRAS(G12C)](ATCC, #CRL-1420); NCI-H23 human non-small cell lung cancer [1 copy KRAS(G12C)](ATCC, #CRL-5800); NCI-H358 human non-small cell lung cancer [1 copy KRAS(G12C)](ATCC, #CRL-5807); LU65A human lung carcinoma (Pharmaron, Beijing, China). Cell lines were cultured essentially according to ATCC and Pharmaron recommendations.
KRAS(G12C) Western Blot Protein Degradation Assay
The MIA PaCa-2 human pancreatic carcinoma cell line and LU65A human lung cancer cell line, which expresses KRAS(G12C), were seeded in 6- or 12-well tissue culture plates, and after 1 hr, test compounds were added at various concentrations and incubated at 37° C./5% CO2 for 48 hr (MIA Paca-2) and 6 hr (LU65A) respectively. Cells were then washed with cold PBS, aspirated and cold RIPA buffer containing a protease/phosphatase inhibitor cocktail was added to lyse cells. After centrifugation, the total protein concentrations of cell lysates were determined using the BCA protein assay. Samples were normalized for equivalent protein concentrations, 5×SDS-PAGE loading buffer added and denatured at 100° C. for 10 min. 20 μl of each sample/well was loaded on a SDS-PAGE gel and electrophoresed for 20 min at 80 V, then 120 V for 1.5 hr. Gels were then electroblotted to nitrocellulose membranes using a wet-transfer method at 250 mA for 2.5 hr. Membranes were incubated with blocking buffer for 1 hr and washed 3 times with TBST for 5 min. Membranes were then incubated with anti-KRAS (Sigma-Aldrich, #SAB1404011) and anti-β-Actin monoclonal antibodies (Cell Signaling Technology, #3700) diluted in blocking buffer at 4° C. overnight per the manufacturer's recommendations. After washing 3 times, blots were incubated with appropriately labeled secondary antibodies for 1 hr at room temperature and washed again. Fluorescence imaging and quantitation was performed using a LI-COR Odyssey. Results was analyzed using GraphPad Prism 7 software. Compound degradation of was determined by the following equation and DC50 values (the concentration at which 50% of the maximal degradation of KRAS occurs) calculated using GraphPad Prism 7 software:
% Inhibition=100−(D−B)/(S−B)*100%. • S: Fluorescence intensity of cells with antibody • D: Fluorescence intensity of compound-treated cells with antibody • B: Fluorescence intensity of cells without antibody

We go through 9 compounds from US20230391772A1, “METHODS AND COMPOSITIONS FOR TARGETED PROTEIN DEGRADATION” (Ranok Therapeutics (Hangzhou) Co. Ltd., priority 2020, published 2023).

pEC50, pIC50: −log10 of the molar value.

The term pEC50 denotes the negative decadic logarithm of the EC50, by convention in mol/L. Read a low pEC50 as a large EC50. Broadly, the DC50 is the concentration at which degradation of the target reaches its halfway point. Low readings indicate degradation at low concentration, high ones degradation only at high concentration.

T1 sequence (P01116 1-188 isoform P01116-2 G12C): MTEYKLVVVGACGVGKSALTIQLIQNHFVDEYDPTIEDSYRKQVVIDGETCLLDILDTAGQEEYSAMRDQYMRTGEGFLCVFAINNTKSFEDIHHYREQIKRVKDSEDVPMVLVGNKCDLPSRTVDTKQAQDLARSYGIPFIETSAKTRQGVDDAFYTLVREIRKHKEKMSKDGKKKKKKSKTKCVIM

`C=CC(=O)N1CCN(c2nc(NCCC(=O)N3CCC(CN4CCN(Cc5ccc(-n6c(C(=O)NCC(F)(F)F)nnc6-c6cc(CC)c(O)cc6O)cc5)CC4)CC3)nc3c2CCN(c2cccc4cccc(Cl)c24)C3)C[C@H]1CC#N` [Compound 80, (R)-4-(4-((4-((1-(3-((4-(4-acryloyl-3-(cyanomethyl)piperazin-1-yl)-7-(8-chloronaphthalen-1-yl)-5,6,7,8-tetrahydropyrido[3,4-d]pyrimidin-2-yl)amino)propanoyl)piperidin-4-yl)methyl)piperazin-1-yl)methyl)phenyl)-5-(5-ethyl-2,4-dihydroxyphenyl)-N-(2,2,2-trifluoroethyl)-4H-1,2,4-triazole-3-carboxamide, trifluoroacetic acid] had a pEC50 in assay [1] of 6.00 to 7.00. The values for the pIC50 at KRAS(G12C) [2] and on HSP90a protein were below 6.00 and 6.00 to 7.00, respectively.
Consider `C=CC(=O)N1CCN(c2nc(NCCC(=O)N3CCC(Cc4ccc(CN(C)Cc5ccc(-n6c(C(=O)NCC(F)(F)F)nnc6-c6cc(C(C)C)c(O)cc6O)cc5)cc4)CC3)nc3c2CCN(c2cccc4ccccc24)C3)C[C@H]1CC#N` [Compound 110, (R)-4-(4-(((4-((1-(3-((4-(4-acryloyl-3-(cyanomethyl)piperazin-1-yl)-7-(naphthalen-1-yl)-5,6,7,8-tetrahydropyrido[3,4-d]pyrimidin-2-yl)amino)propanoyl)piperidin-4-yl)methyl)benzyl)(methyl)amino)methyl)phenyl)-5-(2,4-dihydroxy-5-isopropylphenyl)-N-(2,2,2-trifluoroethyl)-4H-1,2,4-triazole-3-carboxamide, trifluoroacetic acid], for which the pEC50 in assay [1] is below 6.00; in assay [3] (Homo sapiens, MIA PaCa-2, 72 h), below 6.00. In addition, at HSP90a protein, the pIC50 was below 6.00.
As for `CC(=O)N1CCN(c2nc(NCCC(=O)N3CCC(Cc4ccc(CN(C)Cc5ccc(-n6c(C(=O)NCC(F)(F)F)nnc6-c6cc(C(C)C)c(O)cc6O)cc5)cc4)CC3)nc3c2CCN(c2cccc4ccccc24)C3)C[C@H]1CC#N` [Compound 123, (R)-4-(4-(((4-((1-(3-((4-(4-acetyl-3-(cyanomethyl)piperazin-1-yl)-7-(naphthalen-1-yl)-5,6,7,8-tetrahydropyrido[3,4-d]pyrimidin-2-yl)amino)propanoyl)piperidin-4-yl)methyl)benzyl)(methyl)amino)methyl)phenyl)-5-(2,4-dihydroxy-5-isopropylphenyl)-N-(2,2,2-trifluoroethyl)-4H-1,2,4-triazole-3-carboxamide, trifluoroacetic acid], the pEC50 was 6.00 to 7.00 in assay [1] and 6.00 to 7.00 in assay [3] (Homo sapiens, MIA PaCa-2, 72 h). The same compound had a pIC50 at HSP90a protein below 6.00.
Compound `C=CC(=O)N1CCN(c2nc(OC[C@@H]3CCCN3C(=O)C3CCN(Cc4ccc(-n5c(O)nnc5-c5cc(C(C)C)c(O)cc5O)cc4)CC3)nc3c2CCN(c2cccc4cccc(C)c24)C3)C[C@@H]1CC#N` [Compound 155, 2-((S)-1-acryloyl-4-(2-(((S)-1-(1-(4-(3-(2,4-dihydroxy-5-isopropylphenyl)-5-hydroxy-4H-1,2,4-triazol-4-yl)benzyl)piperidine-4-carbonyl)pyrrolidin-2-yl)methoxy)-7-(8-methylnaphthalen-1-yl)-5,6,7,8-tetrahydropyrido[3,4-d]pyrimidin-4-yl)piperazin-2-yl)acetonitrile, trifluoroacetic acid] gave a pEC50 in assay [1] below 6.00. In addition, the pIC50 at KRAS(G12C) [2] is below 6.00; at HSP90a protein, 6.00 to 7.00.
In assay [1], `CC(C)c1cc(-c2nnc(C(=O)NCC(F)(F)F)n2-c2ccc(CC3CCN(Cc4ccc(CNC(=O)CCNc5nc6c(c(N7CCN(C(=O)C(C)(C)C)CC7)n5)CCN(c5cc(O)cc7ccccc57)C6)cc4)CC3)cc2)c(O)cc1O` [Compound 156] gave a pEC50 of 6.00 to 7.00. Further, the pIC50 at KRAS(G12C) [2] was below 6.00; on HSP90a protein, 6.00 to 7.00.
Take `C=C(F)C(=O)N1CCN(c2nc(OC[C@@H]3CCCN3CCCOCCC(=O)NCc3ccc(-n4c(O)nnc4-c4cc(C(C)C)c(O)cc4O)cc3)nc3c2CCN(c2cccc4cccc(Cl)c24)C3)C[C@@H]1CC#N` [Compound 160, 3-(3-((S)-2-(((7-(8-chloronaphthalen-1-yl)-4-((S)-3-(cyanomethyl)-4-(2-fluoroacryloyl)piperazin-1-yl)-5,6,7,8-tetrahydropyrido[3,4-d]pyrimidin-2-yl)oxy)methyl)pyrrolidin-1-yl)propoxy)-N-(4-(3-(2,4-dihydroxy-5-isopropylphenyl)-5-hydroxy-4H-1,2,4-triazol-4-yl)benzyl)propenamide]: the pEC50 in assay [1] is below 6.00; in assay [3] (Homo sapiens, MIA PaCa-2, 72 h), below 6.00. Further, the pIC50 at KRAS(G12C) [2] was below 6.00; on HSP90a protein it was above 7.00.
`C=C(F)C(=O)N1CCN(c2nc(OC[C@@H]3CCCN3CCCOCCC(=O)NCc3ccc(-n4c(O)nnc4-c4cc(CC)c(O)cc4O)cc3)nc3c2CCN(c2cccc4cccc(Cl)c24)C3)C[C@@H]1CC#N` [Compound 161, 3-(3-((S)-2-(((7-(8-chloronaphthalen-1-yl)-4-((S)-3-(cyanomethyl)-4-(2-fluoroacryloyl)piperazin-1-yl)-5,6,7,8-tetrahydropyrido[3,4-d]pyrimidin-2-yl)oxy)methyl)pyrrolidin-1-yl)propoxy)-N-(4-(3-(5-ethyl-2,4-dihydroxyphenyl)-5-hydroxy-4H-1,2,4-triazol-4-yl)benzyl)propanamide]: the pEC50 in assay [1] is below 6.00; in assay [3] (Homo sapiens, MIA PaCa-2, 72 h), below 6.00. The pIC50 on KRAS(G12C) [2] and at HSP90a protein was 6.00 to 7.00 each time.
For the compound `C=CC(=O)N1CCN(c2nc(OCCN3CCC(C(=O)N4CCN(Cc5ccc(-n6c(C(=O)NCC(F)(F)F)nnc6-c6cc(C)c(O)cc6O)cc5)CC4)CC3)nc3c2CCN(c2cccc4cccc(Cl)c24)C3)C[C@@H]1CC#N` [Compound 253, (S)-4-(4-((4-(1-(2-((4-(4-acryloyl-3-(cyanomethyl)piperazin-1-yl)-7-(8-chloronaphthalen-1-yl)-5,6,7,8-tetrahydropyrido[3,4-d]pyrimidin-2-yl)oxy)ethyl)piperidine-4-carbonyl)piperazin-1-yl)methyl)phenyl)-5-(2,4-dihydroxy-5-methylphenyl)-N-(2,2,2-trifluoroethyl)-4H-1,2,4-triazole-3-carboxamide], the DC50 on KRAS(G12C) [4] is above 1 µM. In assay [3] (72 hr), this compound gave a pEC50 of 6.00 to 7.00.
The like results for `C=CC(=O)N1CCN(c2nc(OCCN3CCC(C(=O)N4CCN(Cc5ccc(-n6c(C(=O)NCC(F)(F)F)nnc6-c6cc(C)c(O)cc6O)cc5)CC4)CC3)nc3c2CCN(c2cccc4cccc(Cl)c24)C3)C[C@@H]1CC#N` [Compound 254, (S)-4-(4-((4-(1-(2-((4-(4-acryloyl-3-(cyanomethyl)piperazin-1-yl)-7-(8-chloronaphthalen-1-yl)-5,6,7,8-tetrahydropyrido[3,4-d]pyrimidin-2-yl)oxy)ethyl)piperidine-4-carbonyl)piperazin-1-yl)methyl)phenyl)-5-(2,4-dihydroxy-5-methylphenyl)-N-(2,2,2-trifluoroethyl)-4H-1,2,4-triazole-3-carboxamide] were, in that order, above 1 µM and below 6.00.
